From US3949075A, “Anti-microbial compounds of 2', 4' substituted anilides of substituted nitrosalicylic acid for quadruped animals” (Ferro Corporation, priority 1974, dated 1976) come the findings set out here.

Converted amounts (≈) assume the structure as drawn. Read-outs that look alike come from different tables or passages of the source.

Series [1] can be described thus: Tolerance / toxicity in sheep. The series is classed as in vivo. Also on record: key to Tolerance at 100 mg/kg / Tolerance at 50 mg/kg: "toxic" refers to death of sheep resulting from the use of the indicated compound at the indicated dosage; key to Tolerance: Tol.: tolerated; Tox.: toxic; Sym.: symptoms of toxic reaction. Particulars: in vivo, Table 1, read-out: Tolerance, highest test dosage at which the sheep developed no toxic symptoms. The procedure: (§1) The results of tests on sheep in a manner described, supra, using compounds of the present invention are given in Table 1, Examples 5 through 13. The numbers in the column headed "Haemonchus (15 mg/kg)" refer to the percent of parasites destroyed or expelled when the indicated compound was introduced into the rumen of sheep at a dosage of 15 milligrams per kilogram of body weight. The values under "Tolerance (mg/kg)" refer to the highest test dosage in the milligrams of anthelmintic per kilogram of body weight at which the sheep developed no toxic symptoms. "Tol." is an abbreviation for "tolerated". The symbols R1 and R2 refer to those of Formula I in these and other following examples.
(§2) The importance of the 2',4' substitution on the anilide moiety of Formula I is illustrated by the case of the dichloro substitution as summarized in Table III. […] This has been mentioned briefly hereinabove. As used herein, "toxic" refers to death of sheep resulting from the use of the indicated compound at the indicated dosage.
(§3) The data of the tables were generated using procedures previously described. The compounds tested are disubstituted and, except for Example 50 which is dibromo, are dichloro. Where the position for the substituents is other than 2' and 4', it is indicated. Under the indicated microorganisms, the values given in this and the following tables, should be read as: percentage of microorganism killed/dose in milligrams per kilogram of body weight. Under "Tolerance", the term "Tol." means "tolerated", "Tox." means "toxic", and "Sym." means "symptoms of toxic reaction", all at the dosage value which follows. It will be appreciated that there is no sharp toxicity end point in determining toxicity to living sheep.

The test system of series [2] is liver flukes of the genus Fasciola. The experiment in a line: Utility against liver flukes of the genus Fasciola in sheep (oral). Format: in vivo. The method, then:
(§4) Test for activity against liver flukes were conducted as follows:
(§5) Eggs of Fasciola hepatica were collected from the bile of donor sheep. The eggs were embryonated and snails were infected (the genus Lymnaea serves as intermediate host) to produce Metacercariae which are the infective forms for sheep. Each sheep was infected with 250 metacercariae intraruminally. When the infection became patent in ca. 80 days, egg counts were carried out to determine the degree of worm burden. The liver was processed to recover F. hepatica in the untreated and treated sheep.
The compounds of this invention also have utility against liver flukes.

Series [3] relates to Fasciola hepatica. The experiment in a line: Test for activity against liver flukes, Fasciola hepatica, in infected sheep. The series is classed as in vivo. The method, then: as §4, §5, §3
Series [4] has as its system Trichophyton mentagrophytes. The experiment in a line: Inhibition of fungus on Sabouraud agar. Particulars: 120 hours at 25°C., read-out: inhibitory concentration. Format: cell-based. The procedure: (§6) The following procedure for antibacterial evaluation was used. Test compounds were dissolved in a suitable solvent (typically dimethyl sulfoxide or acetone) and incorporated in a nutrient agar at various concentrations. The plates were then streaked with cultures of the appropriate bacteria. The inoculum contained about 8 × 10^8 organisms per milliliter. After incubation for 48 hours at 37°C., the plates were examined for evidence of growth of the microorganisms. The minimum concentration necessary for complete inhibition of growth was noted.
For testing against the fungus Trichophyton the same procedure was used, except that the test medium was Sabouraud agar, and the plates were cultured for 120 hours at 25°C. before evaluation for evidence of growth. The inoculum added to the culture media contained about 5 × 10^6 spores in a water suspension containing 0.1% peptone.

The test system of series [5] is Haemonchus contortus. Description: Percent of Haemonchus destroyed or expelled in infected sheep (egg count after treatment). The series is classed as in vivo, Haemonchus contortus (in sheep). Particulars: for inhibition in vivo at 2 mg/kg / inhibition in vivo at 5 mg/kg / inhibition in vivo at 15 mg/kg: Haemonchus contortus. The method, then: Two groups of sheep were used in the tests. One group was used as a non-medicated control, while the other group was treated with the compound under investigation. Helminth-free young lambs were infected with about 10,000 filariform larvae of Haemonchus contortus. In three weeks when the infection became apparent, egg counts were made to determine the density of the worm burden.
The egg count was carried out using the following modified Stoll method. Three grams of sheep feces were taken rectally from each animal and placed in a Stoll flask. To each flask, tap water was added to the top line. The fecal pellets were too hard to break down, the flasks were closed with rubber stoppers and kept in the refrigerator for several hours. The flasks were thoroughly shaken and a 1 ml. sample was drawn from the middle using a wide mouth pipette. This 1 ml. sample was transferred to an 8 ml. plastic tube, to which enough saturated sodium chloride solution was added to reach the rim. The tubes were then centrifuged for 10 minutes at 1500 r.p.m. Then sodium chloride solution was added with a medicine dropper forming a concave miniscus. A cover glass was carefully added and the tubes were kept in a refrigerator for ten to twenty minutes. During that period, the nematode ova flowed upward and adhered to the bottom of the cover glass slip. At the end of the 20-minute period, the cover slip was carefully detached from the miniscus and transferred to a microscopic slide. The ova were then counted under a microscope equipped with 10X ocular and 10X objective lens. Each ovum under the microscope represented 20 ova in the sample.
Animals with sufficiently high egg counts were taken out of the pool and housed in experimental pens. Since the salicylanilides of the present invention are water insoluble, the compounds were first ground using a mortar and pestle and then were placed in a carboxymethyl cellulose solution. The particles were further micronized ultrasonically. The compound was then administered to two or three animals by Oesophageal gavage. Control, untreated animals, received only the carboxymethyl cellulose solution in a similar manner. On the sixth and seventh day after treatment, fecal pellets were taken from the rectum of the control as well as the treated animals and egg counts were made.
as §1, §3

The subject of series [6] is sheep. The experiment in a line: Tolerance / toxicity in sheep. Also on record: key to Tolerance at 100 mg/kg / Tolerance at 50 mg/kg: "toxic" refers to death of sheep resulting from the use of the indicated compound at the indicated dosage; key to Tolerance: Tol.: tolerated; Tox.: toxic; Sym.: symptoms of toxic reaction. The series is classed as in vivo. The method, then:
as §1, §2, §3

Series [7] relates to Haemonchus and Fasciola hepatica. The experiment in a line: Dual activity against Haemonchus and Fasciola in sheep and therapeutic ratio. Format: in vivo. Particulars: sheep, 5 mg./kg.
Series [8] relates to Salmonella choleresuis. Description: Agar plate minimum inhibitory concentration. Format: cell-based. Particulars: 48 h, read-out: Minimum Inhibitory Concentration. The procedure:
as §6

Series [9] concerns Haemophilus gallinarum. The experiment in a line: Agar plate minimum inhibitory concentration. Format: cell-based. Particulars: Avibacterium paragallinarum, nutrient agar, 48 hours at 37°C., complete inhibition. The method, then: as §6
Series [10] has as its system Streptococcus foecalis. Description: Agar plate minimum inhibitory concentration. Format: cell-based. Particulars: 48 h, read-out: Minimum Inhibitory Concentration. The method, then: as §6
For series [11], the system named is Staphylococcus aureaus. The experiment in a line: Agar plate minimum inhibitory concentration. Format: cell-based. Particulars: 48 h, read-out: Minimum Inhibitory Concentration. The method, then: as §6
The subject of series [12] is Salmonella gallinarum. The experiment in a line: Agar plate minimum inhibitory concentration. The series is classed as cell-based. Particulars: Salmonella enterica, nutrient agar, 48 hours at 37°C., complete inhibition. The method, then:
as §6

Series [13] has as its system Escherichia coli. The experiment in a line: Agar plate minimum inhibitory concentration. Particulars: nutrient agar, 48 hours at 37°C., complete inhibition. Format: cell-based. The procedure:
as §6

The subject of series [14] is Phytophthora infestans. The series is classed as in vivo, Phytophthora infestans (on tomatoes).
Series [15] has as its system Alternaria solani. Description: Reducing infestation on tomatoes, early blight. The series is classed as in vivo, Alternaria solani (on tomatoes).
The mark [16] stands for this setting: Fasciola hepatica, sheep, Tables VIII-XI, read-out: Fasciola hepatica, percentage of microorganism killed.
Setting [17] is: Fasciola hepatica, sheep, 5 mg/kg, Tables VIII-XI, read-out: Fasciola hepatica, percentage of microorganism killed.
[18] abbreviates: sheep, Tables VIII-XI, read-out: Haemonchus, percentage of microorganism killed.
Where [19] appears, read: sheep, 5 mg/kg, Tables VIII-XI, read-out: Haemonchus, percentage of microorganism killed.
[20] abbreviates: sheep, 15 mg/kg, Table V, read-out: Effectiveness at 15 mg/kg against Haemonchus.
Setting [21] is: sheep, 15 mg/kg, Tables VIII-XI, read-out: Haemonchus, percentage of microorganism killed.
Setting [22] is: sheep, into rumen, 15 mg/kg, Table 1.

Regarding `Cc1c([N+](=O)[O-])cc(C(C)(C)C)c(O)c1C(=O)Nc1ccc(Cl)cc1` [Example 7, 3-tert. butyl-4'-chloro-6-methyl-5-nitrosalicylanilide], the NOAEL in series [1] was 15 to 50 mg/kg. Moreover, the “effect against liver flukes” value in series [2] (15 mg/kg) is reported as “efficacious”. In addition, the inhibition in vivo at 2 mg/kg in [3] (setting [16]) and in series [5] (setting [18]) was 0% in each case. Moreover, the figures for the inhibition in vivo at 5 mg/kg in [3] (setting [17]) and in series [5] (setting [19]) were 50% and 65%, respectively. Moreover, the inhibition in vivo at 15 mg/kg amounted to 100% in series [3] (setting [16]), 81% in series [5] (setting [20]) and 81% in series [5] (setting [21]). For the same molecule, the MIC in series [4] came to 1 µg/mL (≈ 2.76 µM). The “Haemonchus (2 mg/kg), percent of parasites destroyed or expelled” value in [5] (sheep, into rumen, Table 1) was 0%. In addition, the “Haemonchus (5 mg/kg), percent of parasites destroyed or expelled” value in series [5] (sheep, into rumen, 5 mg/kg, Table 1) came out at 65%. In addition, the “Haemonchus (15 mg/kg), percent of parasites destroyed or expelled” value (from here on “Haemonchus (15 mg/kg), percent”) in series [5] (setting [22]) is listed as 81%.

In the case of `Cc1c([N+](=O)[O-])cc(C(C)(C)C)c(O)c1C(=O)Nc1ccc(Cl)cc1Cl` [Example 5, 3-tert. butyl-2', 4'-dichloro-6-methyl-5-nitrosalicylanilide], the Tolerance entry in series [6] (50 mg./kg., Tables VIII-X) is “Tol”; in [6] (100 mg./kg., Tables VIII, IX) it was “Sym”. For the same molecule, the “Tolerance at 50 mg/kg” value in series [6] (50 mg/kg, Tables III and IV) is given as “nontoxic”. Further, in series [6] (100 mg/kg, Tables III and IV), the “Tolerance at 100 mg/kg” value is “toxic”. In addition, in [1], the NOAEL was in the range of 50 to 100 mg/kg. The “effect against (mature) liver flukes” value in series [2] (oral, 5 mg/kg, within three days) was “completely destroyed all flukes”. Besides, the inhibition in vivo at 5 mg/kg in series [3] (Fasciola hepatica, read-out: Fasciola hepatica, percentage of microorganism killed) came out at 100%; in series [5] (setting [19]) it was 100%. Further, the inhibition in vivo at 1 mg/kg in series [3] (Fasciola hepatica, sheep, 1 mg/kg, Tables VIII and X, read-out: Fasciola hepatica, percentage of microorganism killed) amounted to 44%. Moreover, the inhibition in vivo at 2 mg/kg in series [3] (setting [16]) stood at 99%; in [5] (setting [18]) it was 14%. Further, the “dose ratio: times less than the dose at which the 2',5' dichloro compound had no activity (Fasciola)” value in [3] (sheep) is 2.5 times. Besides, in [3] (sheep, dose 2.5 times less than that at which the 2',5' dichloro compound had no activity), the “effective against Fasciola” value turned out to be 99%. In addition, the inhibition in vivo at 15 mg/kg in series [5] (iv, sheep, 15 mg/kg, Tables III and IV, read-out: Effectiveness (%) at 15 mg/kg) came to 100%; in [5] (read-out: Haemonchus, percentage of microorganism killed, sheep, 15 mg/kg, Tables VIII-XI) it was 100%. The “activity at 5 mg./kg.” value in series [5] (sheep, 5 mg/kg) is 100%. Besides, the “Effectiveness (%) at 5 mg/kg” value in series [5] (sheep, 5 mg/kg, Tables III and IV) worked out at 100%. For the same molecule, the “Effectiveness at 15 mg/kg against Haemonchus” value in [5] (sheep, 15 mg/kg, Table VI) is recorded as 100%. Further, the “effective in killing or expelling Haemonchus” value in series [5] (sheep, dose not given) came to 100%. For the same molecule, the “Haemonchus (2 mg/kg), percent of parasites destroyed or expelled” value in series [5] (sheep, into rumen, Table 1) is on record as 14%. For the same molecule, the “Haemonchus (15 mg/kg), percent” value in [5] (setting [22]) was found to be 100%. Besides, the “dual activity against both Haemonchus and Fasciola” value in [7] is listed as 100%.

As to `Cc1c([N+](=O)[O-])cc(C(C)(C)C)c(O)c1C(=O)Nc1ccc(Br)cc1` [Example 8, 4'-bromo-3-tert. butyl-6-methyl-5-nitrosalicylanilide], the MIC in [8] came out at 64 µg/mL (≈ 157 µM); in series [9] it was 8 µg/mL (≈ 19.6 µM); in [10], 64 µg/mL (≈ 157 µM); in series [11] it was 1 µg/mL (≈ 2.46 µM); in series [12], 64 µg/mL (≈ 157 µM); in [13] it was 64 µg/mL (≈ 157 µM). Also, the inhibition in vivo at 5 mg/kg in [3] (setting [17]) turned out to be 0%. The inhibition in vivo at 15 mg/kg in series [3] (setting [16]) is 100%; in [5] (setting [20]), 61%; in series [5] (setting [21]) it was 61%. Besides, the “Haemonchus (15 mg/kg), percent” value in [5] (setting [22]) is recorded as 61%. The “reducing infestation on tomatoes, late blight” value in series [14] is on record as “effective in reducing infestation”. Also, the “reducing infestation on tomatoes, early blight” value in series [15] is recorded as “effective in reducing infestation”.
